According to PMC4522710, “A putative ATPase mediates RNA transcription and capping in a dsRNA virus” (eLife, 2015):

Target: T1, CPV turret protein (TP) (Bombyx mori cypovirus 1, UniProt Q914N6)
T1 construct: native full-length protein in intact virions purified from polyhedra; GTase, bridge, MT-1 and MT-2 domains; pentameric turret
Experiment: cryoEM structure of virion complex
Type: binding
Conditions: 10 mM MgCl2, pH 8.0, 31 °C

| Compound | cryoEM structure of virion complex (2 mM GTP, GTase site (all four structures), also putative ATPase site with SAM without ATP (3JB2)) | cryoEM structure of virion complex (1 mM SAM, MT-2 site (SAM alone, 3JB1), MT-1 and MT-2 sites with ATP and/or GTP present (3JAY, 3JB2, 3JB3)) |
| --- | --- | --- |
| Nc1nc2c(ncn2[C@@H]2O[C@H](COP(=O)(O)OP(=O)(O)OP(=O)(O)O)[C@@H](O)[C@H]2O)c(=O)[nH]1 [GTP] | In G-CPV, one GTP binds to the GTase site of GTase domain. | – |
| C[S+](CC[C@H](N)C(=O)O)C[C@H]1O[C@@H](n2cnc3c(N)ncnc32)[C@H](O)[C@@H]1O (some centres unmarked) [SAM] | – | In S-CPV, one SAM binds to the MT-2 domain of each TP. |
